This note sets out measurements from PMC4980783 (Chemistry Central Journal, 2016).

Values joined by “and” are separate entries in the source; they are usually repeats but may differ in a detail not shown here. Equal values may be shown once. Read-outs that look alike come from different tables or passages of the source.

In this test the target is influenza virus NA (Influenza A virus, UniProt Q6DPL2). The format is biochemical. The following applies: single replicates (3).
influenza virus NA, sequence (Q6DPL2 whole entry, looked up): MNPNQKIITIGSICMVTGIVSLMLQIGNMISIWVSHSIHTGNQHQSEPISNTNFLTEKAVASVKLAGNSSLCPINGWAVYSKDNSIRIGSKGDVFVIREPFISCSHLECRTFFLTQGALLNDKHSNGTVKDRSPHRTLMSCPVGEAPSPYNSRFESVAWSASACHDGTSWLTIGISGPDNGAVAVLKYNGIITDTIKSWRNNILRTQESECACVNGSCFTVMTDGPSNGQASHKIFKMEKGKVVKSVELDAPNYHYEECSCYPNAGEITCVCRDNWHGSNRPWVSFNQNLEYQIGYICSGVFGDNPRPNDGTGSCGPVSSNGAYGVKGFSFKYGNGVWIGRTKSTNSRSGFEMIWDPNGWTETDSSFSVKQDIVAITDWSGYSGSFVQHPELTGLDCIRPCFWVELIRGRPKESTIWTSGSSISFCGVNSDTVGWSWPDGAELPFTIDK

For the compound `CC(=O)N[C@H]1[C@H]([C@H](O)[C@H](O)CO)OC(C(=O)O)=C[C@@H]1N=C(N)N` [Zanamivir, zanamivir], the inhibition rates by setting is: (first line per compound) 100.00 and 99.40 and 99.96; (second line per compound, presumably 5-fold diluted (Sheet1)) 44.04 and 41.05; (third line per compound) 17.05 and 17.04 and 19.04.
